Read-outs that look alike come from different tables or passages of the source. No end group written: not given here.
Assays:
C57BL6/J DIO mice [1] = test system: C57BL6/J DIO mice
C57BL6/J DIO mice [2] = test: Body weight of diet-induced obese mice under daily compound administration; type: in vivo, mouse
Description: FIG. 9. Loss of weight in Vandetanib administered mice. C57BL6/J DIO mice were administered 40/mg/kg/day by oral gavage. The mice were weighed daily and the values were expressed as a percentage of the starting weight (day 1). […] Error bars represent standard error of the mean.
FIG. 13. Loss of weight in dasatininb administered mice. C57BL6/J DIO mice were administered 5/mg/kg/day for 27 days. The mice were weighed daily and the values were expressed as a percentage of the starting weight (day 1). […] Error bars represent standard error of the mean.
General preferred layout: The mice were divided into cages of 2-4 mice per cage and allowed to acclimatise to the new housing conditions for at least 2 weeks. The mice were weighed every week to monitor their weight and ensure that the mice are either gaining weight or stabilized prior to initiation of the experiment. Mice were randomly assigned to weight-matched groups for compound administration. Compound dosage and routes of administration were determined based on published literature and pharmacokinetic studies. […]
The dose of Vandetanib chosen for this study was 40 mg/kg/d. This has been determined to be an effective dose for the inhibition of the target VEGFR in various mouse cancer models. […] The mice were weighed on a daily basis during the experiment and monitored for overt signs of toxicity or stress. […]

hedgehog pathway = type: cell-based
[3] = human, in vivo, po; cited from earlier work
[4] = administered orally; cited from earlier work
[5] = cited from earlier work
[6] = test system: human ortholog of Drosophila obesity gene; test: Table 1: type of interaction of small molecule with therapeutic target gene; parameters: key: O: Obesity - obesity pathway interaction; B: validated binding partner
renal cell carcinoma = details: 50 mg/kg for 21 days; cited from earlier work
tumour growth = details: up to 100 mg/kg in mice for 35 days; cited from earlier work
[7] = test system: human Adenoid Cycstic Carcinoma; details: 50 mg/kg/d oral gavage for 4 weeks; cited from earlier work
[8] = cited from earlier work; remark: listed apart in the source
[9] = test system: human ortholog of Drosophila obesity gene; parameters: key: O: Obesity - obesity pathway interaction; B: validated binding partner; details: cited from earlier work
[10] = interaction of the small molecule with the human ortholog(s) / Drosophila gene(s) listed in the same table line

## Cc1nc(Nc2ncc(C(=O)Nc3c(C)cccc3Cl)s2)cc(N2CCN(CCO)CC2)n1 [Dasatinib]
C57BL6/J DIO mice [1]; mouse, in vivo, ip, 5 mg/kg/day
  tolerability / adverse side effects: well tolerated during the course of the study and no adverse side effects were observed
C57BL6/J DIO mice [2]; 5 mg/kg/day intraperitoneally, by day 28
  average loss of starting weight: 20%

## CNC1CCC(N(Cc2cccc(-c3ccncc3)c2)C(=O)c2sc3ccccc3c2Cl)CC1 (centres unmarked) [SAG]
Hedgehog pathway
  hedgehog pathway activation (target genes Gli1 and Ptch1): activation

## CNC(=O)c1cc(Oc2ccc(NC(=O)Nc3ccc(Cl)c(C(F)(F)F)c3)cc2)ccn1 [Sorafenib]
[3]
  maximum tolerated dose in humans: 400 mg
[4]
  half life: 25 to 48 h

## C=CCNC1=C2C[C@@H](C)C[C@H](OC)[C@H](O)[C@@H](C)/C=C(\C)[C@H](OC(N)=O)[C@@H](OC)/C=C\C=C(/C)C(=O)NC(=CC1=O)C2=O [Tanespimycin, 17-allylamino-demethoxygeldamycin]
[5]
  water solubility: water insoluble

## COc1ccc(-c2cc(=O)c3c(OC)c(OC)c(OC)c(OC)c3o2)cc1 [Tangeretin]
[6]
  Type: Type of interaction: B

## COc1cc2c(Nc3ccc(Br)cc3F)ncnc2cc1OCC1CCN(C)CC1 [Vandetanib]
Renal cell carcinoma
  tolerability: well tolerated with no drug related changes in weight or behaviour observed
[3]
  maximum tolerated dose in humans: 300 mg
Tumour growth
  effect on clinical condition: no obvious effect on clinical condition
C57BL6/J DIO mice [1]; DIO mice, 40 mg/kg/d oral gavage, course of the study
  tolerability / adverse side effects: well tolerated during the course of the study and no adverse side effects were observed
[7]
  tolerability: well tolerated by the mice and no adverse side effects or loss in body weight was observed
C57BL6/J DIO mice [2]; 40 mg/kg/d oral gavage, stabilized over the course of the experiment
  reduction of body weight: ~10%

## O=C(O[C@@H]1Cc2c(O)cc(O)cc2O[C@@H]1c1ccc(O)c(O)c1)c1cc(O)c(O)c(O)c1 [epicatechin gallate]
[6]
  Type: Type of interaction: B

## CCC(=O)O[C@]1(C(=O)SCF)[C@H](C)C[C@H]2[C@@H]3C[C@H](F)C4=CC(=O)C=C[C@]4(C)[C@@]3(F)[C@@H](O)C[C@@]21C [fluticasone propionate]
[8]; human, in vivo, po
  acute toxic effects: no acute toxic effects reported
[8]; intranasal 2 mg twice daily for 7 days, healthy human volunteers
  tolerability: well tolerated
[8]; repeat oral doses up to 80 mg daily for 10 days in volunteers, up to 10 mg daily for 14 days in patients
  tolerability: well tolerated

## O=C1C[C@@H](c2ccc(O[C@@H]3O[C@H](CO)[C@@H](O)[C@H](O)[C@H]3O)cc2)Oc2cc(O)ccc21 [liquiritin]
[6]
  Type: Type of interaction: O

## COC1=C(CC(C)OC(=O)c2cc(Cl)c(O)cc2O)C(=O)C(NC=O)=CC1=O (centres unmarked) [radester]
[9]; [10]
  Type: Type of interaction: O

## C[C@H](N[C@@H](CCc1ccccc1)C(=O)O)C(=O)N1[C@H](C(=O)O)C[C@@H]2CCC[C@@H]21 [ramiprilat]
[9]
  Type: Type of interaction: B

## O=c1c2ccccc2nc2n1CCc1c-2[nH]c2ccccc12 [rutecarpine]
[6]
  Type: Type of interaction: B

## O=C(/C=C/c1ccccc1)NC(NC(=S)Nc1cccc2cccnc12)C(Cl)(Cl)Cl (centres unmarked) [salubrinal]
[6]
  Type: Type of interaction: B

## LY 303511
[9]
  Type: Type of interaction: O

## Pyrethrins
[9]; [10]
  Type: Type of interaction: O

## mahanine
[9]
  Type: Type of interaction: B

## maraviroc
[9]
  Type: Type of interaction: B

## melitten
[9]
  Type: Type of interaction: O

## milbemycin
[9]
  Type: Type of interaction: O

## neodymium
[9]
  Type: Type of interaction: O

## neuromedin C (GNHWAVGHLM; ends and bridges not checked; UniProt P07492 41-50, looked up)
[9]; [10]
  Type: Type of interaction: O

## obovatol
[9]
  Type: Type of interaction: B

## omalizumab
[9]; [10]
  Type: Type of interaction: B

## pegvisomant
[9]
  Type: Type of interaction: O

## pentosidine
[9]
  Type: Type of interaction: B

## pheophorbide a
[9]
  Type: Type of interaction: O

## pifithrin
[9]
  Type: Type of interaction: B

## pindobind
[9]
  Type: Type of interaction: O

## prostaglandin J2
[9]
  Type: Type of interaction: O

Reference: patent US20130030007A1, “Obesity Small Molecules” (AKRON MOLECULES GMBH, priority 2010, published 2013)
